In the assay the test system is récepteurs 5HT - 3. Nature of the assay: Inhibition of the Bezold-Jarisch effect (reflex bradycardia after i.v. serotonin) in the anaesthetised rat. Type of assay: in vivo. The text has this:
Cette propriété est indicatrice d'un effet antagoniste des récepteurs 5HT - 3.
Cette étude est réalisée sur des rats Charles River d'un poids compris entre 350 et 400 g anesthésiés par une dose de 1,25 g.kg⁻¹ d'uréthanne administré intrapéritonéalement. La pression artérielle est enregistrée au niveau d'une artère carotide au moyen d'une cellule de pression Statham P 23 dB. La fréquence cardiaque est enregistrée à partir de la pression artérielle en utilisant un cardiotachymètre. Les enregistrements sont réalisés sur un enregistreur GOULD 2400. Un cathéter est placé dans la veine jugulaire et atteint l'oreillette droite de l'animal. L'effet Bezold-Jarisch est provoqué par une injection rapide de sérotonine à la dose de 40 µg/kg par voie intraveineuse dans l'oreillette droite. Le ralentissement cardiaque est associé à une chute de la pression artérielle qui provient de la stimulation des fibres afférentes vagales principalement localisées dans le ventricule droit.
Les produits à tester sont administrés par voie intraveineuse aux doses de 10 µg/kg, 100 µg/kg et 1 mg/kg. Un effet Bezold-Jarisch est provoqué 5, 15, 30, 45, 60, 90 et 120 minutes après injection des produits testés.
Le pourcentage d'inhibition de la bradycardie réflexe est évalué à partir du tracé de fréquence cardiaque. Les pourcentages d'inhibition provoqués par le produit de l'invention, ses isomères, des produits structuralement voisins, ainsi que par le produit de référence ICS 205930 sont indiqués dans le tableau I qui donne l'inhibition en % du réflexe Bezold chez le rat en fonction du temps; tous les produits ont été administrés par voie i.v à la même dose de 10 µg/kg.; les tests ont été réalisés sur 8 animaux.

Regarding `CN1C2CCC1CC(OC(=O)c1cccc3ccsc13)C2` (stereo not drawn) [Exemple 1, Chlorhydrate d'endo [(méthyl - 8 aza - 8 bicyclo [3.2.1]octyl - 3)oxycarbonyl] - 7 benzo [b] thiphène], the “effet Bezold-Jarisch (bradycardie et hypotension après injection de sérotonine)” value (rat, i.v., doses between 10 µg/kg and 1 mg/kg, result in words) is on record as “antagonise de façon intense et prolongée”. Moreover, the “activité antagoniste 5HT₃” value (summary in words, refers to tableau I) is on record as “actif”.
For `CN1[C@@H]2CC[C@H]1C[C@@H](OC(=O)c1c[nH]c3ccccc13)C2` [ICS 205-930], under “inhibition of reflex bradycardia (Bezold reflex), rat, i.v. 10 µg/kg, 15 min after injection, serotonin 40 µg/kg i.v., 8 animals”, the “Inhibition % après 15 min.” value is listed as 79%. The “Inhibition % après 30 min.” value (inhibition of reflex bradycardia (Bezold reflex), rat, i.v. 10 µg/kg, 30 min after injection, serotonin 40 µg/kg i.v., 8 animals) is reported as 65%. The “Inhibition % après 60 min.” value (inhibition of reflex bradycardia (Bezold reflex), rat, i.v. 10 µg/kg, 60 min after injection, serotonin 40 µg/kg i.v., 8 animals) was determined as 14%. Besides, the “Inhibition % après 120 min.” value (inhibition of reflex bradycardia (Bezold reflex), rat, i.v. 10 µg/kg, 120 min after injection, serotonin 40 µg/kg i.v., 8 animals) is listed as “inactif”.
